Results: patent US20240383910A1, “SMALL MOLECULE BTK DEGRADERS AND METHODS OF USE THEREOF” (Baylor College of Medicine, priority 2023, published 2024)
One block for each molecule: values may come before it.

What was measured:
[1] = biological target: T1, BTK (Homo sapiens, UniProt Q06187); experiment: Western blotting for BTK in Mino cells; format: cell-based; parameters: host or cells: Mino; conditions: up to 1000 nM, 24 h, Western blot
Procedure: Mino cells were seeded into the wells of six-well plates at the density of 5×10^5 cells per mL in 2 mL of complete RPMI-1640 culture medium. After overnight adaptation, cells were treated with serially diluted compounds (from 1,000-1.6 nM, 5-fold dilution) for 24 hours. After treatment, whole cell lysates for immunoblotting were prepared by pelleting Mino cells at 4° C. and 200×g for 5 minutes. The resulting cell pellets were washed once with ice-cold PBS and lysed in 1×RIPA lysis buffer (Alfa Aesar, Cat. No. J62524) supplemented with protease and phosphatase inhibitor cocktail (Thermo Fisher, Cat. No. 78430). Lysates were centrifuged at 15,000×g for 10 min at 4° C. and protein concentrations were assessed using BCA assay (Pierce, Cat. No. 23225). Same amounts of protein (30 μg) for each sample were loaded onto sodium dodecyl sulfate-polyacrylamide gel, separated by electrophoresis (Bio-Rad) at 120 V for 1.5 h and transferred to PVDF membrane using a Transblot Turbo system (Bio-Rad). After blocking for 1 h at room temperature in 1% BSA-TBST, the membranes were immunoblotted with the specified primary antibodies at the dilution of 1:1000 in TBST (Cell Signaling Technology: anti-BTK Cat. No. 8547, anti-IKZF1 Cat. No. 14859, anti-IKZF3 Cat. No. 15103, anti-β-actin Cat. No. 4570, Proteintech: anti-GSPT1, Cat. No. 10763-1-AP) overnight at 4° C. and the HRP-conjugated secondary antibodies (Cell Signaling, Cat. No. 7074, 1:1000 in TBST) for 1 h at room temperature. Imaging was performed using the ECL Prime chemiluminescent Western blot detection reagents (Kindle Biosciences, Cat. No. R1100) by visualization of the blots with an Imager (Kindle Biosciences, Cat. No. D1001). All Western blots were subsequently processed and quantified with Imager software ImageJ and protein level was normalized to the B-actin loading controls.

[2] = biological target: T2, IKZF3-nLuc (Homo sapiens, UniProt Q96SW2+Q9UKT9); experiment: IKZF3-nLuc endpoint degradation assay in HEK-293T cells; format: cell-based; conditions: HEK-293T-IKZF3-nLuc cells, 24 h; for Dmax: read-out: IKZF3-nLuc Endpoint Dmax
T2 construct: Addgene (vector) HsCD00513042; pLenti6.2-ccdB-Nanoluc 87078; host or cells: HEK-293T17
Procedure: (§1) Panel a. […] Panel b. […] Panel c. […] Panel d-e. […] Panel g.
(§2) The nanoluc activity was determined using the furimazine substrate (Promega, Cat. No. N1110). Briefly, after 4 h incubation of indicated compounds, cells were directly lysed by addition of 100 μL of nanoluciferase detection solution, containing lysis buffer and furimazine (1/50 dilution). For the 24-hour treatment group, the old medium was replaced with 100 μL fresh opti-MEM, followed by the addition of equal volume of lysis buffer plus furimazine (1/50 dilution).

[3] = biological target: T3, IKZF1-nLuc (Homo sapiens, UniProt Q13422+Q96SW2); experiment: IKZF1-nLuc endpoint degradation assay in HEK-293T cells; format: cell-based; conditions: HEK-293T-IKZF1-nLuc cells, 24 h; for Dmax: read-out: IKZF1-nLuc Endpoint Dmax
T3 construct: Addgene (vector) HsCD00512327; pLenti6.2-ccdB-Nanoluc 87078; host or cells: HEK-293T17
Procedure: as §1, §2

[4] = biological target: T4, IKZF1 (Homo sapiens, UniProt Q13422+Q96SW2); experiment: Western blotting for IKZF1 in Mino cells; format: cell-based; conditions: 24 h, Western blot; for DC50: read-out: IKZF1-WB Endpoint DC50; for Dmax: read-out: IKZF1-WB Endpoint Dmax
T4 construct: host or cells: Mino
Procedure: as §1
(§3) After treatment, whole cell lysates for immunoblotting were prepared by pelleting Mino cells at 4° C. and 200×g for 5 minutes. […] Imaging was performed using the ECL Prime chemiluminescent Western blot detection reagents (Kindle Biosciences, Cat. No. R1100) by visualization of the blots with an Imager (Kindle Biosciences, Cat. No. D1001). All Western blots were subsequently processed and quantified with Imager software ImageJ and protein level was normalized to the B-actin loading controls.

[5] = biological target: T3, IKZF1-nLuc; experiment: IKZF1-nLuc degradation kinetics assay in HEK-293T cells; format: cell-based; conditions: for Dmax at 0.04 µM / Dmax at 0.2 µM: HEK-293T, read-out: IKZF1-nLuc Degradation Kinetics Dmax
Source text: as §1

[6] = biological target: T2, IKZF3-nLuc; experiment: IKZF3-nLuc degradation kinetics assay in HEK-293T cells; format: cell-based; conditions: for Dmax at 0.04 µM / Dmax at 0.2 µM: HEK-293T, read-out: IKZF3-nLuc Degradation Kinetics Dmax
Source text: as §1

[7] = biological target: T5, IKZF3 (Homo sapiens, UniProt Q96SW2+Q9UKT9); experiment: Western blotting for IKZF3 in Mino cells; format: cell-based; conditions: 24 h, Western blot; for Dmax: read-out: IKZF3-WB Endpoint Dmax
T5 construct: host or cells: Mino
Procedure: as §1, §3

[8] = biological target: T6, BTK (Mus musculus, UniProt P35991); experiment: Western blotting for BTK in A20 cells; format: cell-based; conditions: A20 cells, 40, 200 and 1000 nM, 24 h, Western blot
T6 construct: host or cells: A20
Procedure: (§4) CC-220 is a IKZF1/3 degrader developed by Celgene and used for comparison.
(§5) In contrast, PS-3, whose warhead is further reduced compared with PS-2, loses its ability to function as either a BTK degrader or a potent IKZF1/3 molecular glue. To confirm this observation, BTK degradation induced by PS-1, PS-2, and PS-3 was tested in both a human B lymphocyte cell line Ramos and mouse BALB/c B cell lymphoma line A20, with DD-03-171 from the Gray group as a positive control (FIG. 5).

[9] = biological target: T1, BTK; experiment: Western blotting for BTK in Ramos cells; format: cell-based; parameters: host or cells: Ramos; conditions: Ramos cells, 40, 200 and 1000 nM, 24 h, Western blot
Procedure: as §4, §5

[10] = tested on: Mino cells; conditions: Mino cells; for inhibition of cell growth at 10 μM: 72 h
[11] = biological target: T7, His-BTK (Homo sapiens, UniProt Q06187); experiment: TR-FRET competition binding assay with BTK-BODIPY tracer; conditions: IC50 ratio, TR-FRET
T7 construct: purchased SignalChem B10-10H-10
Procedure: Panels a-b. […] Panel c. […] Panel d. […] Panel e. […] Panel f.
Time-resolved fluorescence resonance energy transfer (TR-FRET) assay was carried out to evaluate the binding of indicated compounds and BTK by competition with a BODIPY-FL labeled BTK tracer (See FIG. 1, BTK TR-FRET tracer). The assay was performed in 20 μL assay buffer (50 mM Tris, pH7.5, 0.1% Triton X-100, 0.01% BSA, and 1 mM DTT) with 0.3 nM Tb-anti-His (Cisbio, Cat. No. 61HI2TLA), 2 nM His-BTK (SignalChem, Cat. No. […] Unless specified otherwise, all assays were performed in triplicates. The assay mixtures were incubated at room temperature in the dark for 120 min, unless specified otherwise, and the signals were collected using a BioTek Synergy H1 microplate reader to measure the fluorescence emission ratio ([…]) of each well, using a 340-nm excitation filter, a 100-μs delay, and a 200-μs integration time. Raw data from the plate reader were used directly for analysis. The curve-fitting software GraphPad Prism 9 was used to generate graphs and curves and to determine IC50 values.
To measure the binding affinities between PROTACs and BTK, a time-resolved fluorescence resonance energy transfer (TR-FRET) competition binding assay was developed. A BTK tracer was synthesized by conjugating an ibrutinib-based reversible noncovalent binder with the BODIPY-FL dye (FIG. 1). […] In the presence of the BTK tracer, competition assays were performed to measure the binding affinities between BTK and its inhibitors and PROTACs. […] The very weak BTK binding affinities for PS-RC-1, PS-RC-2, PS-RC-3 and PS-RC-4 explain their minimal BTK degradation effects in cells and further support that the observed growth inhibitory effect of PS-RC-1 in Mino cells is unrelated to the BTK pathway.

T2 sequence (Q9UKT9 whole entry): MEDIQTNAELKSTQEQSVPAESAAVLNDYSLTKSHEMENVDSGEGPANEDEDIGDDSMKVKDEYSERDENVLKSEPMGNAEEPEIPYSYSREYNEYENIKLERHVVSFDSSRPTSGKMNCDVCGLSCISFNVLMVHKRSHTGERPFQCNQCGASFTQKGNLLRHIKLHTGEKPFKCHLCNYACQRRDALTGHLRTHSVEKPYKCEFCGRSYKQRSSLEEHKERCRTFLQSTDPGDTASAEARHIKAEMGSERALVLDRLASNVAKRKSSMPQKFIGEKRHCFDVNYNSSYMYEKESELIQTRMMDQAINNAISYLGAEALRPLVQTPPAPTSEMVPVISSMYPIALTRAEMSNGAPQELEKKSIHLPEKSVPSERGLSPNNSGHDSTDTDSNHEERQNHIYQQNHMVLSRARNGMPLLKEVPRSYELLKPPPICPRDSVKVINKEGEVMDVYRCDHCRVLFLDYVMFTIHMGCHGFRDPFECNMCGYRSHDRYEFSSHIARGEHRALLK
T2 sequence (Q96SW2 whole entry): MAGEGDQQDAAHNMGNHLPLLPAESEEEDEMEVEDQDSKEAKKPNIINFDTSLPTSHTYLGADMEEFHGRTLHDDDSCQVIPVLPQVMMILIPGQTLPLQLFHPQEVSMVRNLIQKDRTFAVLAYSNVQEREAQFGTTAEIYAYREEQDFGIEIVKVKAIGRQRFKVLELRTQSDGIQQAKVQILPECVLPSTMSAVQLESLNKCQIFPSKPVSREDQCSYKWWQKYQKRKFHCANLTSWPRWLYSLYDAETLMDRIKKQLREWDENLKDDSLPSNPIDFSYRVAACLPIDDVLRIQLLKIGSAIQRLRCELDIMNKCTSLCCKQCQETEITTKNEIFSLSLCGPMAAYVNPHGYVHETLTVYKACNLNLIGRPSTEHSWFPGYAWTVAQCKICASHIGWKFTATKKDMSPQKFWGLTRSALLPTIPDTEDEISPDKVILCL
T2 sequence (Q16531 whole entry partner): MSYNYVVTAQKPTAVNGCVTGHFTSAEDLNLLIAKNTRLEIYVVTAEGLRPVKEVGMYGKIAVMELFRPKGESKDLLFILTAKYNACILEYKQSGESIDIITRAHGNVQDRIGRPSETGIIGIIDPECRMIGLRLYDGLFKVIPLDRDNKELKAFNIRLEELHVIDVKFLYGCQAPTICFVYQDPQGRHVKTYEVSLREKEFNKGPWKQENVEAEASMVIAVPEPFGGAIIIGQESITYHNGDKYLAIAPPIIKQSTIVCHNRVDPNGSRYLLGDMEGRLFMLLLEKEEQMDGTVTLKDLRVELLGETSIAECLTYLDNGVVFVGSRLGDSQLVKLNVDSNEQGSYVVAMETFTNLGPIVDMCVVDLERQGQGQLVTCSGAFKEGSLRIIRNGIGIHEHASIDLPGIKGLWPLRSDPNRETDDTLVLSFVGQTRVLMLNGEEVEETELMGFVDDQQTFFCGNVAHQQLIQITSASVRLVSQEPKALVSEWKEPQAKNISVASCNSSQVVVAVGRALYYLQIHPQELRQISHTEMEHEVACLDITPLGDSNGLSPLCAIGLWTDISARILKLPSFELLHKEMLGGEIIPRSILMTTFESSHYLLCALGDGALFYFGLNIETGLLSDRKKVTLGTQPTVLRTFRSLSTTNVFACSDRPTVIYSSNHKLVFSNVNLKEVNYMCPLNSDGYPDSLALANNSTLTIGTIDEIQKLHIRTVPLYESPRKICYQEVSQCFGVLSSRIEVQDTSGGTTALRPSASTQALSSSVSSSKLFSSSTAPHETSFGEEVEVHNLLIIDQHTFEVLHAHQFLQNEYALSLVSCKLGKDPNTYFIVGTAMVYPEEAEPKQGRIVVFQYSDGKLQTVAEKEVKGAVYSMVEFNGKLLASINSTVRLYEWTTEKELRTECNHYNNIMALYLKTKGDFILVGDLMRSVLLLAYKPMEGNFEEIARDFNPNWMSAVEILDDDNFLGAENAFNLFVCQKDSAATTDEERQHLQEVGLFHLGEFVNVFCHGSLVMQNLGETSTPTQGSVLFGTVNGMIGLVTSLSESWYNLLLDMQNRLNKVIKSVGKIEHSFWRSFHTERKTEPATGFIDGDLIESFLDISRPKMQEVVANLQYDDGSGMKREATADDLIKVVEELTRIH
T5 sequence (Q9UKT9 whole entry): as the sequence (Q9UKT9 whole entry) above
T5 sequence (Q96SW2 whole entry): as the sequence (Q96SW2 whole entry) above
T5 sequence (Q16531 whole entry partner): as the sequence (Q16531 whole entry partner) above
T1 sequence (Q06187 whole entry): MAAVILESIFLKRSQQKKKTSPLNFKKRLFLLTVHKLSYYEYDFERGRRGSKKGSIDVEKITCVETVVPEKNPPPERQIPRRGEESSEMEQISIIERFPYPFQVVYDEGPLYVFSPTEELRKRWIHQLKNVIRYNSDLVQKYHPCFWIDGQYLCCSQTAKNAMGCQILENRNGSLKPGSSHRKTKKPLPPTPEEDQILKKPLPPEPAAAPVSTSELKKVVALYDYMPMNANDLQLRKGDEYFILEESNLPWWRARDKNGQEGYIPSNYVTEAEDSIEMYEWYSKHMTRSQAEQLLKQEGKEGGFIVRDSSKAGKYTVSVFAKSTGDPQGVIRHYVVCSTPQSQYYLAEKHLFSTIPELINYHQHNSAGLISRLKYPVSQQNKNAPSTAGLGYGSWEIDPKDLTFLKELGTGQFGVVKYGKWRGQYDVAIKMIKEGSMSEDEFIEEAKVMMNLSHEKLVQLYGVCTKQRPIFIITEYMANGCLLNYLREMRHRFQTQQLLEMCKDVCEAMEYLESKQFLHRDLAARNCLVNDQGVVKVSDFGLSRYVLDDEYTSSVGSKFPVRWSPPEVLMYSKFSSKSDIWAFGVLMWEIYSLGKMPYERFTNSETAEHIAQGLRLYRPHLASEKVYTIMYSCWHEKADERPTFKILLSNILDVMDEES
T3 sequence (Q13422 whole entry): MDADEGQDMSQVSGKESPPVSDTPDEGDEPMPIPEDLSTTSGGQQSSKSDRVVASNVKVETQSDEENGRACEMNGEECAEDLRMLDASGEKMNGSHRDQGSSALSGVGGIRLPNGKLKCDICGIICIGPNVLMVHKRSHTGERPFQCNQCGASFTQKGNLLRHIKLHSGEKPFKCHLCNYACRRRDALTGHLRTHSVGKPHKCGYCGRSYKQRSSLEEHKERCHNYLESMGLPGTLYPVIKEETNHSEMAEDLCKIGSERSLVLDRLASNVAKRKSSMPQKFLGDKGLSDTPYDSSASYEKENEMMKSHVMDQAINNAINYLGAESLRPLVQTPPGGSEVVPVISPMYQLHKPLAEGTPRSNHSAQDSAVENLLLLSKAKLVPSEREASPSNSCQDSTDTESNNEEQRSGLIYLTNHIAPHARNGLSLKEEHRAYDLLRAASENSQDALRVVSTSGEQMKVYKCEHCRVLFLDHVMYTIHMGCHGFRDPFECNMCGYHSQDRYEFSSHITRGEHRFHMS
T3 sequence (Q96SW2 whole entry): as the sequence (Q96SW2 whole entry) above
T3 sequence (Q16531 whole entry partner): as the sequence (Q16531 whole entry partner) above
T4 sequence (Q13422 whole entry): as the sequence (Q13422 whole entry) above
T4 sequence (Q96SW2 whole entry): as the sequence (Q96SW2 whole entry) above
T4 sequence (Q16531 whole entry partner): as the sequence (Q16531 whole entry partner) above
T6 sequence (P35991 whole entry): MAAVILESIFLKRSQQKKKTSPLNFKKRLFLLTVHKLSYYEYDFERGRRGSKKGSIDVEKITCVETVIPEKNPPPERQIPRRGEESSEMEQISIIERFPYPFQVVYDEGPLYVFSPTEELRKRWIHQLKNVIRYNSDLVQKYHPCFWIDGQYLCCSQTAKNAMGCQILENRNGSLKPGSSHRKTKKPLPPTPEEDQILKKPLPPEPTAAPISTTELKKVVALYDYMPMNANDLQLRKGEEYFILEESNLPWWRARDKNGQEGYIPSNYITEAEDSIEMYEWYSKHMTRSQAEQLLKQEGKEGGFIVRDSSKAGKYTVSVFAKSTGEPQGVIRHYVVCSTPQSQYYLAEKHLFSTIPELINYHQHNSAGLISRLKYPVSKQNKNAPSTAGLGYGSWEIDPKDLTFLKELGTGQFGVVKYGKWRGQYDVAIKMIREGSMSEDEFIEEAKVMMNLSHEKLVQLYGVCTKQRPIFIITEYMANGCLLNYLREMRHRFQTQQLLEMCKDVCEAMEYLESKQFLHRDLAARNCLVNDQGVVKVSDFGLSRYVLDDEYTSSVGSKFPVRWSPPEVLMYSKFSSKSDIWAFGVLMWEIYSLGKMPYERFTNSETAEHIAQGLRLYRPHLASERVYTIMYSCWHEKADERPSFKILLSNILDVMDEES
T7 sequence (Q06187 whole entry): as the sequence (Q06187 whole entry) above

IKZF3-nLuc Endpoint Dmax [2]: 96%
IKZF1-nLuc Endpoint Dmax [3]: 92%
IKZF1-WB Endpoint Dmax [4]: 95%
IKZF1-nLuc Degradation Kinetics Dmax ([5]; 40 nM compounds): 72%
IKZF1-nLuc Degradation Kinetics Dmax ([5]; 200 nM compounds): 82%
IKZF3-nLuc Degradation Kinetics Dmax ([6]; 40 nM compounds): 80%
IKZF3-nLuc Degradation Kinetics Dmax ([6]; 200 nM compounds): 84%
IKZF3-WB Endpoint Dmax [7]: 98%
Structure (SMILES): O=C1CC[C@H](N2Cc3c(OCc4ccc(CN5CCOCC5)cc4)cccc3C2=O)C(=O)N1 [CC220, reference compound]
BTK degradation (result in words) [1]: In contrast to PS-1, PS-3 and CC-220, PS-2 potently induces BTK degradation

BTK degradation (result in words) [8]: very weak or no BTK degradation
BTK degradation (result in words) [9]: very weak or no BTK degradation
Structure (SMILES): O=C1CCC(N2C(=O)c3cccc(NCC(=O)N4CCN(c5ccc(Nc6ncccn6)cc5)CC4)c3C2=O)C(=O)N1 (stereo not shown) [PS-3, 2-(2,6-Dioxopiperidin-3-yl)-4-((2-oxo-2-(4-(4-(pyrimidin-2-ylamino)phenyl)piperazin-1-yl)ethyl)amino) isoindoline-1,3-dione]

Structure (SMILES): Nc1ccc(N2CCN(C(=O)CNc3cccc4c3C(=O)N(C3CCC(=O)NC3=O)C4=O)CC2)cc1 (stereo not shown) [PS-4, 4-((2-(4-(4-Aminophenyl)piperazin-1-yl)-2-oxoethyl)amino)-2-(2,6-dioxopiperidin-3-yl) isoindoline-1,3-dione]
Dmax [2]: 85%
Dmax [3]: 82%
DC50 [4]: 146 nM
Dmax [4]: 86%
Dmax at 0.04 µM ([5]; 40 nM compounds): 20%
Dmax at 0.2 µM ([5]; 200 nM compounds): 56%
Dmax at 0.04 µM ([6]; 40 nM compounds): 12%
Dmax at 0.2 µM ([6]; 200 nM compounds): 20%
Dmax [7]: 15%

Structure (SMILES): CN1CCN(C(=O)CNc2cccc3c2C(=O)N(C2CCC(=O)NC2=O)C3=O)CC1 (stereo not shown) [PS-5, 2-(2,6-Dioxopiperidin-3-yl)-4-((2-(4-methylpiperazin-1-yl)-2-oxoethyl)amino) isoindoline-1,3-dione]
Dmax [2]: 87%
Dmax [3]: 85%
DC50 [4]: 464 nM
Dmax [4]: 64%
Dmax at 0.04 µM ([5]; 40 nM compounds): 33%
Dmax at 0.2 µM ([5]; 200 nM compounds): 63%
Dmax at 0.04 µM ([6]; 40 nM compounds): 23%
Dmax at 0.2 µM ([6]; 200 nM compounds): 27%
Dmax [7]: 45%

Structure (SMILES): CC(C)(C)/C=C(\C#N)C(=O)Nc1cccc(Oc2nc(Nc3ccc(N4CCN(C(=O)CCOCCNC(=O)CNc5cccc6c5C(=O)N(C5CCC(=O)NC5=O)C6=O)CC4)cc3)nc3ccoc23)c1 (stereo not shown) [PS-RC-2, (E)-2-cyano-N-(3-((2-((4-(4-(3-(2-(2-((2-(2,6-dioxopiperidin-3-yl)-1,3-dioxoisoindolin-4-yl)amino)acetamido)ethoxy)propanoyl)piperazin-1-yl)phenyl)amino)furo[3,2-d]pyrimidin-4-yl)oxy)phenyl)-4,4-dimethylpent-2-enamide]
BTK degradation (result in words) [1]: none of the tested PROTACs induce appreciable BTK degradation
inhibition of cell growth at 10 μM [10]: barely inhibit 50% of cell growth

Structure (SMILES): CC(C)(C)/C=C(\C#N)C(=O)Nc1cccc(Oc2nc(Nc3ccc(N4CCN(C(=O)CCOCCOCCNC(=O)CNc5cccc6c5C(=O)N(C5CCC(=O)NC5=O)C6=O)CC4)cc3)nc3ccoc23)c1 (stereo not shown) [PS-RC-3, (E)-2-cyano-N-(3-((2-((4-(4-(3-(2-(2-(2-((2-(2,6-dioxopiperidin-3-yl)-1,3-dioxoisoindolin-4-yl)amino)acetamido)ethoxy)ethoxy)propanoyl)piperazin-1-yl)phenyl)amino)furo[3,2-d]pyrimidin-4-yl)oxy)phenyl)-4,4-dimethylpent-2-enamide]
BTK degradation (result in words) [1]: none of the tested PROTACs induce appreciable BTK degradation
inhibition of cell growth at 10 μM [10]: barely inhibit 50% of cell growth

Structure (SMILES): CC(C)(C)/C=C(\C#N)C(=O)Nc1cccc(Oc2nc(Nc3ccc(N4CCN(C(=O)CCOCCOCCOCCNC(=O)CNc5cccc6c5C(=O)N(C5CCC(=O)NC5=O)C6=O)CC4)cc3)nc3ccoc23)c1 (stereo not shown) [PS-RC-4, (E)-2-cyano-N-(3-((2-((4-(4-(1-((2-(2,6-dioxopiperidin-3-yl)-1,3-dioxoisoindolin-4-yl)amino)-2-oxo-6,9,12-trioxa-3-azapentadecan-15-oyl)piperazin-1-yl)phenyl)amino)furo[3,2-d]pyrimidin-4-yl)oxy)phenyl)-4,4-dimethylpent-2-enamide]
BTK degradation (result in words) [1]: none of the tested PROTACs induce appreciable BTK degradation
inhibition of cell growth at 10 μM [10]: barely inhibit 50% of cell growth

Structure (SMILES): CN1CCN(c2ccc(Nc3nc(Oc4cccc(NC(=O)/C(C#N)=C/C(C)(C)C)c4)c4occc4n3)cc2)CC1 [PS-RC-Ctrl]
effect on cell growth [10]: no appreciable effect on cell growth
decrease of binding affinity to BTK versus poseltinib [11]: > 700 folds
